Columns and labels:
[1] = system: human colon cancer cell strain HT29; experiment: Cell growth inhibition test (MTT), HT29; format: cell-based; conditions: HT-29, 72 h, HT29, 3 days culture, read-out: concentration exhibiting anti-cell effect (GI50)
Outline: (§1)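 MTT read-out at 540 nm after 4 h formazan formation gives living cell count following 3-day compound exposure at 37° C, 5% CO2. Seeding: 5000 AN3CA, 1000 IGROV1, 5000 HT29 cells/well. Growth rate T/C % = 100×[(B−C)/(A−C)], with C taken before dosing; GI50 = concentration giving 50% growth.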

[2] = system: human endometrial cancer cell strain AN3CA; experiment: Cell growth inhibition test (MTT), AN3CA; format: cell-based; conditions: AN3-CA, 72 h, 3 days culture, read-out: concentration exhibiting anti-cell effect (GI50)
Outline: as §1

[3] = system: human ovary cancer cell strain IGROV1; experiment: Cell growth inhibition test (MTT), IGROV1; format: cell-based; conditions: IGROV-1, 72 h, IGROV1, 3 days culture, read-out: concentration exhibiting anti-cell effect (GI50)
Outline: as §1

PI3Kα = PI3Kα (Homo sapiens, UniProt P42336); experiment: PI3K kinase activity inhibition assay; format: biochemical; conditions: Kinase-Glo Plus ATP detection, read-out: IC50 against PI3K
Outline: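 PI3Kα (50 nM solution) was reacted with 30 μM ATP and 45 μM PIP2 solutions, each in HEPES pH 7.4 with MgCl2 and DTT, for 2 h at room temperature. Remaining ATP was measured by Kinase-Glo Plus luminescence, and inhibition was derived from ATP consumed. IC50 was taken from curve fitting of the serial dilutions.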

Sequence of PI3Kα (P42336 whole entry, species assumed): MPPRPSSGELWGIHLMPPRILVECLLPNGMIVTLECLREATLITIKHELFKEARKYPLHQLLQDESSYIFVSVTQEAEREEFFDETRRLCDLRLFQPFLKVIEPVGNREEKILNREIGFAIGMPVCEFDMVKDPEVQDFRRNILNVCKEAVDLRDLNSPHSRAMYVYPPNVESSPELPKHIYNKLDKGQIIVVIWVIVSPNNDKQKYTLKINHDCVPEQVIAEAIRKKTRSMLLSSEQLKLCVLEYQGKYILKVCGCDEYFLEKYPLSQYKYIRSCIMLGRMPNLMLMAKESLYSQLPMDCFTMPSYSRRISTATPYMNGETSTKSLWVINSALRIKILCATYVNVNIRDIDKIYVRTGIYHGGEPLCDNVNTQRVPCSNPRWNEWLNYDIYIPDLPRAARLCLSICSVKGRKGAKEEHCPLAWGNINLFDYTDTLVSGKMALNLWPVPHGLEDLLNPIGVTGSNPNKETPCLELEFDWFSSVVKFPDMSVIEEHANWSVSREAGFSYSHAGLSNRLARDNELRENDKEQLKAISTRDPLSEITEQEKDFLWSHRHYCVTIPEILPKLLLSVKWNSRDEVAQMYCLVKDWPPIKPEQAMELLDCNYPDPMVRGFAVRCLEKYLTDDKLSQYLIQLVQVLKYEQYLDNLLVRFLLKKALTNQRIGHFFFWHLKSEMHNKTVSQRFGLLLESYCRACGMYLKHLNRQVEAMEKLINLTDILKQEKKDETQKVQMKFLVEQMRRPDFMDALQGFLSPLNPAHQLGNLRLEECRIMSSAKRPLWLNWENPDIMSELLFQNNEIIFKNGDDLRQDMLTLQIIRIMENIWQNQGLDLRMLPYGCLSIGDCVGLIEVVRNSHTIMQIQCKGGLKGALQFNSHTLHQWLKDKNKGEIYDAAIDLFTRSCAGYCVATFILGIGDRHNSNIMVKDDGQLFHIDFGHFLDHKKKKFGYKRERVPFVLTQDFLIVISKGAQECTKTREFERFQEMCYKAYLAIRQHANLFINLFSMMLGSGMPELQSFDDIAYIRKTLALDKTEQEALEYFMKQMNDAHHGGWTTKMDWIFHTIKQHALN
Sequence of PI3Kα (P27986 whole entry partner, species assumed): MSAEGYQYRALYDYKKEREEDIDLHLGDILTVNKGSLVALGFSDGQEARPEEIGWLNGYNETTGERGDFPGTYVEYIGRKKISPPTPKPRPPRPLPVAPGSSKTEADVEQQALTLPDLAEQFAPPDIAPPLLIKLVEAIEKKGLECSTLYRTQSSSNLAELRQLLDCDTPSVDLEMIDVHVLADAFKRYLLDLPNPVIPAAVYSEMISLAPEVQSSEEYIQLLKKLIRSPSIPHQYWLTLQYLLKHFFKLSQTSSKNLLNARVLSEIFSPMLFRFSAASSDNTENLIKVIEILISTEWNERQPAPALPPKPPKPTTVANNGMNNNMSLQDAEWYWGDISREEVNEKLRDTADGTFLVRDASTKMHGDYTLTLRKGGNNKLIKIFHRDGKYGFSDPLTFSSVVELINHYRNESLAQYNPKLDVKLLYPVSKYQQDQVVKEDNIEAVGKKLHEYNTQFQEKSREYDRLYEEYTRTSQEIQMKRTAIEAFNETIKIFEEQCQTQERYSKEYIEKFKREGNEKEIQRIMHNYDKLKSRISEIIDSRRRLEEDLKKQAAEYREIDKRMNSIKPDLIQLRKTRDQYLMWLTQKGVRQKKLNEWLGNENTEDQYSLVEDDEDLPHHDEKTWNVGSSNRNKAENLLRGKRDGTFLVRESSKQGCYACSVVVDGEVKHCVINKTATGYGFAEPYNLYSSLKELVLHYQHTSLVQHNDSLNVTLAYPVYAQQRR

| GI50 [1] | GI50 [2] | GI50 [3] | IC50 (PI3Kα) | Compound |
| --- | --- | --- | --- | --- |
| ≤ 5 µM | ≤ 5 µM | ≤ 5 µM | < 0.01 µM | C[C@H]1COCCN1c1nc(-c2cnc(N)nc2)nc2c1nc(N1CCN(S(C)(=O)=O)CC1)n2CC(F)(F)F [Example 127, 5-{6-[(3S)-3-Methylmorpholin-4-yl]-8-[4-(methylsulfonyl)piperazin-1-yl]-9-(2,2,2-trifluoroethyl)-9H-purin-2-yl}pyrimidin-2-amine] |
| ≤ 5 µM | ≤ 5 µM | ≤ 5 µM | < 0.01 µM | CS(=O)(=O)N1CCN(c2nc3c(N4CCOCC4)nc(-c4cnc(N)nc4)nc3n2CC(F)(F)F)CC1 [Example 8, 5-{8-[4-(Methylsulfonyl)piperazin-1-yl]-6-morpholin-4-yl-9-(2,2,2-trifluoroethyl)-9H-purin-2-yl}pyrimidin-2-amine] |
| ≤ 5 µM | ≤ 5 µM | ≤ 5 µM | < 0.01 µM | CCC(=O)N1CCN(c2nc3c(N4CCOCC4)nc(-c4cnc(N)nc4)nc3n2CC(F)(F)F)CC1 [Example 117, 5-[6-Morpholin-4-yl-8-(4-propionylpiperazin-1-yl)-9-(2,2,2-trifluoroethyl)-9H-purin-2-yl]pyrimidin-2-amine] |

Second part, the molecule before the results:

| Compound | GI50 [1] | GI50 [2] | GI50 [3] | IC50 (PI3Kα) |
| --- | --- | --- | --- | --- |
| C[C@@H]1CN(c2nc3c(N4CCOCC4)nc(-c4cnc(N)nc4)nc3n2CC(F)(F)F)CCN1C=O [Example 112, (2R)-4-[2-(2-Aminopyrimidin-5-yl)-6-morpholin-4-yl-9-(2,2,2-trifluoroethyl)-9H-purin-8-yl]-2-methylpiperazine-1-carboaldehyde] | ≤ 5 µM | ≤ 5 µM | ≤ 5 µM | < 0.01 µM |
| C[C@@H]1CN(c2nc3c(N4CCOCC4)nc(-c4cnc(N)nc4)nc3n2CC(F)(F)F)C[C@H](C)N1C=O [Example 116, 4-[2-(2-Aminopyrimidin-5-yl)-6-morpholin-4-yl-9-(2,2,2-trifluoroethyl)-9H-purin-8-yl]-cis-2,6-dimethylpiperazine-1-carboaldehyde] | ≤ 5 µM | ≤ 5 µM | ≤ 5 µM | < 0.01 µM |
| CC[C@H]1CN(c2nc3c(N4CCOCC4)nc(-c4cnc(N)nc4)nc3n2CC(F)(F)F)CCN1C(=O)[C@H](C)O [Example 77, (2S)-1-{(2S)-4-[2-(2-Aminopyrimidin-5-yl)-6-morpholin-4-yl-9-(2,2,2-trifluoroethyl)-9H-purin-8-yl]-2-ethylpiperazin-1-yl}-1-oxopropan-2-ol] | ≤ 5 µM | ≤ 5 µM | ≤ 5 µM | < 0.01 µM |
| Cc1nc(N)ncc1-c1nc(N2CCOCC2)c2nc(N3CCN(S(C)(=O)=O)CC3)n(CC3CC3)c2n1 [Example 6, 5-{9-(Cyclopropylmethyl)-8-[4-(methylsulfonyl)piperazin-1-yl]-6-morpholin-4-yl-9H-purin-2-yl}-4-methylpyrimidin-2-amine] | ≤ 5 µM | ≤ 5 µM | ≤ 5 µM | < 0.01 µM |

From patent publication US8309546B2, “Morpholinopurine derivatives” (Daiichi Sankyo Company, Limited, priority 2008, dated 2012)
